What was measured:
ragweed = assay: Test C postemergence; format: in vivo, Ambrosia elatior
How it was run: (§1)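 Seeds are planted in blended loam soil and sand and treated preemergence, while seedlings in a peat moss/vermiculite medium receive postemergence sprays at 2 to 18 cm height. All plants stay in the greenhouse for 13 to 15 days before visual comparison with controls on a 0–100 scale.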

lambsquarters = assay: Test C postemergence; format: in vivo, Chenopodium album
How it was run: as §1

Heteranthera limosa = assay: Test B flooded paddy test; format: in vivo; details: Flood, 250 g ai/ha; 0 to 100 scale where 0 is no effect and 100 is complete control
How it was run: (§2)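 Seedlings are raised to two leaves, flooded to a depth of 3 cm and dosed by adding the compound to the floodwater. Water level is kept constant, and plants are scored visually versus controls 13–15 days later (0 = no effect, 100 = complete control).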

wheat = assay: Test A preemergence; format: in vivo, Triticum aestivum
How it was run: (§3)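 Visual 0–100 rating (100 = complete control) taken about 10 d post-treatment relative to untreated checks. Preemergence: directed soil spray on sown loam/sand pots. Postemergence: seedlings 2–10 cm, 1–2 leaf. Non-phytotoxic solvent formulation with surfactant.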

giant foxtail = assay: Test A preemergence; format: in vivo, Setaria faberii; details: for Plant response rating, Foxtail, Giant: 125 g ai/ha; for Foxtail, Giant plant response rating: 500 g ai/ha
How it was run: as §3

barnyardgrass [1] = assay: Test B flooded paddy test; format: in vivo, Echinochloa crus-galli; details: Flood, 250 g ai/ha; 0 to 100 scale where 0 is no effect and 100 is complete control
How it was run: as §2

velvetleaf = assay: Test C postemergence; format: in vivo, Abutilon theophrasti
How it was run: as §1

chickweed = assay: Test C postemergence; format: in vivo, Stellaria media; details: for Chickweed plant response rating / Plant response rating, Chickweed: scale 0 to 100 (0 no effect, 100 complete control)
How it was run: as §1

morningglory = assay: Test C postemergence; format: in vivo, Ipomoea coccinea
How it was run: as §1

wheat, winter = assay: Test C postemergence; format: in vivo, Triticum aestivum
How it was run: as §1

rice = assay: Test B flooded paddy test; format: in vivo, Oryza sativa; details: Flood, 250 g ai/ha; 0 to 100 scale where 0 is no effect and 100 is complete control
How it was run: as §2

yellow nutsedge = assay: Test C postemergence; format: in vivo, Cyperus esculentus
How it was run: as §1

sedge, umbrella = assay: Test B flooded paddy test; format: in vivo, Cyperus difformis; details: Flood, 250 g ai/ha; 0 to 100 scale where 0 is no effect and 100 is complete control
How it was run: as §2

galium = assay: Test C postemergence; format: in vivo, Galium aparine; details: for Galium plant response rating / Plant response rating, Galium: scale 0 to 100 (0 no effect, 100 complete control)
How it was run: as §1

corn = assay: Test A preemergence; format: in vivo, Zea mays; details: for Plant response rating, Corn: 125 g ai/ha; for Corn plant response rating: 500 g ai/ha
How it was run: as §3

barnyardgrass [2] = assay: Test A preemergence; format: in vivo, Echinochloa crus-galli; details: for Plant response rating, Barnyardgrass: 125 g ai/ha; for Barnyardgrass plant response rating: 500 g ai/ha
How it was run: as §3

[3] = 16 g ai/ha, postemergence, 0 is no effect, 100 is complete control
[4] = 31 g ai/ha, postemergence, visual rating, scale 0 to 100 (0 no effect, 100 complete control), 13 to 15 days
[5] = 125 g ai/ha, postemergence, visual rating, scale 0 to 100 (0 no effect, 100 complete control)
[6] = Postemergence, 62 g ai/ha, scale 0 to 100 (0 no effect, 100 complete control)
[7] = 0 to 100 scale where 0 is no effect and 100 is complete control
[8] = 31 g ai/ha, postemergence, visual rating, 13 to 15 days
[9] = 125 g ai/ha, postemergence, visual rating
[10] = Postemergence, 31 g ai/ha, scale 0 to 100 (0 no effect, 100 complete control), 13 to 15 days
[11] = 0 to 100 scale, 0 no effect, 100 complete control, approx. 10 days
[12] = 16 g ai/ha, postemergence, visual rating, 13 to 15 days
[13] = Postemergence, 31 g ai/ha, 13 to 15 days

Fc1cccc(Oc2ncc(Cl)cn2)c1-n1cc(Cl)cn1 [Compound 177]
Plant response rating (0 to 100), Ragweed (ragweed; [3]): 10
Ragweed plant response rating (ragweed; [4]): 15
Plant response rating, Ragweed (ragweed; [5]): 60
Plant response rating, Ragweed (ragweed; [6]): 55
Plant response rating (0 to 100), Lambsquarters (lambsquarters; [3]): 60
Lambsquarters plant response rating (lambsquarters; [4]): 65
Plant response rating, Lambsquarters (lambsquarters; [5]): 90
Plant response rating, Lambsquarters (lambsquarters; [6]): 75
Plant response rating, Ducksalad (Heteranthera limosa): 90
Wheat plant response rating (0 to 100 scale) (wheat; 125 g ai/ha): 0
Wheat plant response rating (wheat; 500 g ai/ha, 0 to 100 scale where 0 is no effect and 100 is complete control): 50
Plant response rating, Foxtail, Giant (giant foxtail; [7]): 100
Foxtail, Giant plant response rating (giant foxtail; [7]): 100
Plant response rating, Barnyardgrass (barnyardgrass [1]): 30
Plant response rating (0 to 100), Velvetleaf (velvetleaf; [3]): 50
Velvetleaf plant response rating (velvetleaf; [4]): 70
Plant response rating, Velvetleaf (velvetleaf; [5]): 80
Plant response rating, Velvetleaf (velvetleaf; [6]): 70
Plant response rating (0 to 100), Chickweed (chickweed; [3]): 50
Chickweed plant response rating (chickweed; [8]): 50
Plant response rating, Chickweed (chickweed; [9]): 85
Plant response rating, Chickweed (chickweed; Postemergence, 62 g ai/ha): 55
Plant response rating (0 to 100), Morningglory (morningglory; [3]): 20
Morningglory plant response rating (morningglory; [4]): 10
Plant response rating, Morningglory (morningglory; [5]): 85
Plant response rating, Morningglory (morningglory; [6]): 80
Plant response rating (0 to 100), Wheat (wheat, winter; [3]): 0
Wheat plant response rating (wheat, winter; [4]): 0
Plant response rating, Wheat (wheat, winter; [5]): 5
Plant response rating, Wheat (wheat, winter; [6]): 0
Plant response rating, Rice (rice): 15
Plant response rating (0 to 100), Nutsedge, Yellow (yellow nutsedge; [3]): 0
Nutsedge, Yellow plant response rating (yellow nutsedge; [4]): 5
Plant response rating, Nutsedge, Yellow (yellow nutsedge; [5]): 10
Plant response rating, Nutsedge, Yellow (yellow nutsedge; [6]): 5
Plant response rating, Sedge, Umbrella (sedge, umbrella): 100
Plant response rating (0 to 100), Galium (galium; [3]): 60
Galium plant response rating (galium; [8]): 50
Plant response rating, Galium (galium; [9]): 98
Plant response rating, Galium (galium; Postemergence, 62 g ai/ha): 85
Plant response rating, Corn (corn; [7]): 0
Corn plant response rating (corn; [7]): 50
Plant response rating, Barnyardgrass (barnyardgrass [2]; [7]): 70
Barnyardgrass plant response rating (barnyardgrass [2]; [7]): 100

N#Cc1cccc(Oc2ncc(Cl)cn2)c1-n1cc(OC(F)F)cn1 [Compound 97]
Plant response rating (0 to 100), Ragweed (ragweed; 125 g ai/ha, postemergence): 70
Plant response rating, Ragweed (ragweed; [10]): 40
Plant response rating, Ragweed (ragweed; [6]): 60
Plant response rating (0 to 100), Lambsquarters (lambsquarters; 125 g ai/ha, postemergence): 98
Plant response rating, Lambsquarters (lambsquarters; [10]): 75
Plant response rating, Lambsquarters (lambsquarters; [6]): 80
Plant response rating, Ducksalad (Heteranthera limosa): 95
Plant response rating, Wheat (wheat; 125 g ai/ha, 0 to 100 scale where 0 is no effect and 100 is complete control): 0
Plant response rating, Foxtail, Giant (giant foxtail; [7]): 100
Foxtail, Giant plant response rating (giant foxtail; [11]): 100
Plant response rating, Barnyardgrass (barnyardgrass [1]): 40
Plant response rating (0 to 100), Velvetleaf (velvetleaf; 125 g ai/ha, postemergence): 70
Plant response rating, Velvetleaf (velvetleaf; [10]): 40
Plant response rating, Velvetleaf (velvetleaf; [6]): 75
Chickweed plant response rating (chickweed; [12]): 70
Plant response rating (0 to 100), Chickweed (chickweed; 125 g ai/ha, postemergence): 90
Plant response rating, Chickweed (chickweed; [13]): 60
Plant response rating, Chickweed (chickweed; Postemergence, 62 g ai/ha): 80
Plant response rating (0 to 100), Morningglory (morningglory; 125 g ai/ha, postemergence): 95
Plant response rating, Morningglory (morningglory; [10]): 85
Plant response rating, Morningglory (morningglory; [6]): 85
Plant response rating (0 to 100), Wheat (wheat, winter; 125 g ai/ha, postemergence): 10
Plant response rating, Wheat (wheat, winter; [10]): 5
Plant response rating, Wheat (wheat, winter; [6]): 5
Plant response rating, Rice (rice): 0
Plant response rating (0 to 100), Nutsedge, Yellow (yellow nutsedge; 125 g ai/ha, postemergence): 5
Plant response rating, Nutsedge, Yellow (yellow nutsedge; [10]): 5
Plant response rating, Nutsedge, Yellow (yellow nutsedge; [6]): 5
Plant response rating, Sedge, Umbrella (sedge, umbrella): 90
Galium plant response rating (galium; [12]): 55
Plant response rating (0 to 100), Galium (galium; 125 g ai/ha, postemergence): 90
Plant response rating, Galium (galium; [13]): 75
Plant response rating, Galium (galium; Postemergence, 62 g ai/ha): 85
Plant response rating, Corn (corn; [7]): 40
Corn plant response rating (corn; [11]): 60
Plant response rating, Barnyardgrass (barnyardgrass [2]; [7]): 80
Barnyardgrass plant response rating (barnyardgrass [2]; [11]): 100

— US9695155B2, “Herbicidal substituted pyrimidinyloxy benzene compounds” (E. I. DU PONT DE NEMOURS AND COMPANY, priority 2013, dated 2017)
